In PubChem BioAssay (NCI):
Several values for one entry are separate records, joined by “and”; a condition that tells them apart may be missing. Identical values can stand only once.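 Results reflect a 48-hour exposure of cells in 96-well plates to compound at five concentrations. GI50 marks 50% less growth. TGI: total growth inhibition.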

What was measured:
Assay in all cases: DTP human tumour cell line panel, 48 h
K-562 leukemia = system: K-562 leukemia
M14 melanoma = system: M14 melanoma
MOLT-4 leukemia = system: MOLT-4 leukemia
NCI-H522 lung = system: NCI-H522 lung
NCI/ADR-RES ovarian = system: NCI/ADR-RES ovarian
OVCAR-3 ovarian = system: OVCAR-3 ovarian
OVCAR-4 ovarian = system: OVCAR-4 ovarian
OVCAR-5 ovarian = system: OVCAR-5 ovarian
RPMI-8226 leukemia = system: RPMI-8226 leukemia
SR leukemia = system: SR leukemia

Structure (SMILES)	GI50 (K-562 leukemia)	TGI (K-562 leukemia)	GI50 (M14 melanoma)	TGI (M14 melanoma)	GI50 (MOLT-4 leukemia)	TGI (MOLT-4 leukemia)	GI50 (NCI-H522 lung)	TGI (NCI-H522 lung)	GI50 (NCI/ADR-RES ovarian)	TGI (NCI/ADR-RES ovarian)	GI50 (OVCAR-3 ovarian)	TGI (OVCAR-3 ovarian)	GI50 (OVCAR-4 ovarian)	TGI (OVCAR-4 ovarian)	GI50 (OVCAR-5 ovarian)	TGI (OVCAR-5 ovarian)	GI50 (RPMI-8226 leukemia)	TGI (RPMI-8226 leukemia)	GI50 (SR leukemia)	TGI (SR leukemia)
COc1cc(C2=NN(C(C)=O)C(c3ccc(OC(C)=O)cc3OC(C)=O)O2)c(OC(C)=O)c2ccccc12 (stereo not given)	0.872 µM	> 91.2 µM	0.582 µM	7.15 µM	0.44 µM	8.5 µM	1.19 µM	11 µM	0.542 µM	> 51.8 µM	0.402 µM	13.9 µM	0.306 µM	8.64 µM	5.64 µM	> 66.8 µM	2.74 µM	14.7 µM	0.537 µM	> 27.4 µM
O=C1c2ccccc2-c2c1c1ccccc1c(=O)n2Cc1ccccc1	–	–	–	> 100 µM	–	> 100 µM	–	> 100 µM	–	> 100 µM	–	> 100 µM	–	42.3 µM	–	> 100 µM	–	> 100 µM	–	> 100 µM
Nc1ccc(/C=C/c2ccnc3ccccc23)cc1	–	44 µM	–	51.5 µM	–	38.7 µM	–	30.7 µM	–	–	–	48.7 µM	–	> 100 µM	–	60.9 µM	–	52.7 µM	–	32.4 µM
COC(=O)c1cccc2cccc(C(=O)Nc3ccc(C)cc3C)c12	–	> 100 µM	–	> 100 µM	–	> 100 µM	–	> 100 µM	–	–	–	> 100 µM	–	> 100 µM	–	> 100 µM	–	> 100 µM	–	> 100 µM
Cn1cc(C(=O)c2ccccc2)ccc1=O	–	> 100 µM	–	> 100 µM	–	> 100 µM	–	> 100 µM	–	–	–	> 100 µM	–	> 100 µM	–	> 100 µM	–	> 100 µM	–	> 100 µM
COc1cc(OC(=O)c2c(O)cc(O)c(O)c2C)cc(C)c1C(=O)Oc1cc(C)c(C(=O)O)c(O)c1	–	> 100 µM	–	> 100 µM	–	> 100 µM	–	> 100 µM	–	–	–	> 100 µM	–	> 100 µM	–	> 100 µM	–	> 100 µM	–	> 100 µM
CC1=C2C(=O)O[C@@H](c3ccoc3)[C@]2(C)CCC1	–	> 100 µM	–	> 100 µM	–	> 100 µM	–	> 100 µM	–	–	–	> 100 µM	–	> 100 µM	–	> 100 µM	–	> 100 µM	–	> 100 µM
CC(=O)OC[C@]12CC[C@H]3[C@@H](C[C@H]4O[C@]45[C@@H](O)C=CC(=O)[C@]35C)[C@@H]1CC[C@@H]2[C@H](C)[C@H]1CC(C)=C(C)C(=O)O1	0.272 µM and 0.201 µM	0.849 µM and 0.979 µM	0.442 µM and 0.32 µM	1.11 µM	0.289 µM and 0.191 µM	0.878 µM and 0.615 µM	0.259 µM and 0.166 µM	0.561 µM and 0.406 µM	–	–	0.314 µM and 0.176 µM	0.842 µM and 0.548 µM	0.571 µM and 0.331 µM	0.9 µM and 1.06 µM	0.883 µM and 1.21 µM	2.5 µM	0.26 µM and 0.107 µM	0.846 µM and 0.446 µM	0.189 µM and 0.187 µM	0.617 µM and 0.631 µM
Cc1ccc2nc3c(C(=O)NCCN(C)C)cccc3nc2c1	–	9.27 µM	–	> 33.7 µM	–	6.29 µM	–	> 100 µM	–	–	–	32.4 µM	–	15.2 µM	–	29.8 µM	–	40.8 µM	–	> 100 µM
Cc1ccc(/C(=C/C=C(C#N)C#N)Sc2ccc(Cl)cc2)cc1	3.34 µM	18.4 µM	5.44 µM	17.7 µM	1.85 µM	14.3 µM	–	–	5.99 µM	19.9 µM	2.31 µM	9.34 µM	11.3 µM	> 100 µM	11.4 µM	25.5 µM	2.34 µM	7.96 µM	2.32 µM	6.14 µM
NC(=S)N/N=C/c1ccc(OC(=O)COc2ccc(Cl)cc2)cn1	1.36 µM	> 100 µM	3.51 µM	15.6 µM	2.26 µM	> 100 µM	0.718 µM	40 µM	3.17 µM	> 100 µM	–	–	5.87 µM	> 100 µM	41.6 µM	> 100 µM	7.31 µM	> 100 µM	0.498 µM	> 100 µM
COC(=O)C(=O)C(C(=O)C(=O)Nc1ccccc1C(N)=O)c1nc2ccc(Cl)cc2[nH]c1=O (stereo not given)	–	> 100 µM	–	> 100 µM	–	> 100 µM	–	–	–	> 100 µM	–	> 100 µM	–	> 100 µM	–	> 100 µM	–	> 100 µM	–	> 100 µM
Cc1ccccc1N(CCC#N)C1=NN(C(=O)CC(=O)Nc2ccccc2)C(c2ccccc2)C1 (stereo not given)	–	> 100 µM	–	> 100 µM	–	> 100 µM	–	> 100 µM	–	–	–	> 100 µM	–	> 100 µM	–	> 100 µM	–	> 100 µM	–	> 100 µM
CCCCCCCCCCCCCC1CCC(CC)N1 (stereo not given)	–	33.3 µM	–	31.8 µM	–	30.6 µM	–	32.6 µM	–	–	–	30.2 µM	–	31.2 µM	–	30.3 µM	–	36.8 µM	–	40.6 µM
COc1ccc2c(c1)C(=O)c1c-2n(CCCn2ccnc2)c(=O)c2ccccc12	0.548 µM	> 100 µM	–	–	0.136 µM	> 100 µM	0.174 µM	5.5 µM	0.634 µM	5.92 µM	0.901 µM	–	1.33 µM	> 100 µM	1.24 µM	3.92 µM	0.223 µM	2 µM	0.0765 µM	7.81 µM
Cc1cn2c(/C=C3/C(=O)N(C)c4ccccc43)c(C)nc2s1	2.23 µM	7.15 µM	5.31 µM	> 100 µM	4.84 µM	26.8 µM	5.04 µM	30.2 µM	3.4 µM	41 µM	–	–	21.9 µM	> 100 µM	28.6 µM	> 100 µM	17 µM	> 100 µM	2.48 µM	7.37 µM
CC12CCCC(O)C1CCC1=CC3(CCC12)SCCS3 (stereo not given)	–	> 10 µM	–	> 10 µM	–	–	–	> 10 µM	–	> 10 µM	–	> 10 µM	–	> 10 µM	–	–	–	> 10 µM	–	> 10 µM
CCOC(=O)Sc1ncnc2nc[nH]c12	0.312 µM	> 100 µM	0.408 µM	> 100 µM	1.58 µM	6.57 µM	3.33 µM	> 100 µM	3.47 µM	> 100 µM	0.474 µM	> 100 µM	0.491 µM	> 100 µM	4.49 µM	> 100 µM	–	–	0.358 µM	6.35 µM
